In patent US20250002488A1, “Glioblastoma Multiforme Treatments” (Brown University, priority 2021, published 2025):

Legend:
GSCs [1] = assay: two-week limiting dilution assay (LDA), self-renewal / neuro-sphere formation; format: cell-based
Text: A graph using an online algorism to score and assess the self-renew ability of GSCs treated with DMSO and HDAC class IIa inhibitor respectively (FIGS. 6B and 6D).
To validate whether HDAC-7 inhibition would present a phenotype change in primary GSCs, its effect on modifying the self-renewal of GSCs was examined, and since there is no small molecule drug currently available as a selective HDAC-7 inhibitor, the class IIa HDAC inhibitor, TMP269, that inhibits HDAC-4,5,7,9, was used. The two-week limiting dilution assay “LDA” that tests the frequency of self-renewing cells within a population was applied. […] Moreover, the same significant result was observed when testing GSCs from different genotypes (FIGS. 6A-6D).

GSCs [2] = assay: cell viability assay by MTS; format: cell-based; settings: increasing doses, 72 hrs
Experimental: Dose response curve for GSCs treated with Pan HDAC inhibitors TSA (Trichostatin A), SAHA (Vorinostat) versus the HDAC class IIa inhibitor (TMP269). Cell viability assay was determined by MTS after the treatment with increasing doses of each corresponding drug at time point 72 hrs with P-value <0.0001.
HDAC-7 has been crystalized, and like other members of class I, II, and IV, HDAC-7 binds to the substrates through a zinc mediated charge relay system. Class IIa HDAC has another specific zinc-binding motif adjacent to the active site, which directs the recognition and protein-protein interaction. However, there is remarkable structural diversity in HDAC-7 found in loop regions around the active site entrance that poses a challenge to generation of inhibitors.

SMILES | neuro-sphere formation of GSCs (GSCs [1]; 2-week limiting dilution assay, versus DMSO control) | self-renewal of GSCs (ability to form neuro-spheres, algorithmic scoring) (GSCs [1]; two-week LDA, versus DMSO-treated control cells, GSCs from different genotypes) | GSC cell viability (GSCs [2])
O=C(NCC1(c2nc(-c3ccccc3)cs2)CCOCC1)c1cccc(-c2noc(C(F)(F)F)n2)c1 [TMP269] | unable to form neuro-spheres | significant decrease | decreases the GSCs' viability
O=C(CCCCCCC(=O)Nc1ccccc1)NO [Vorinostat] |  |  | inhibitory trend
